From paper PMC8632988, “Inhibition of SYK and cSrc kinases can protect bone and cartilage in preclinical models of osteoarthritis and rheumatoid arthritis” (Scientific Reports, 2021)
“And” between values parts separate entries of the source, which are not always exact repeats. Equal entries are not always repeated. Where two headings read alike, the source gives them in different places.

Tests used:
Aurora A = target: T1, Aurora A (Homo sapiens, UniProt O14965); experiment: Kinase selectivity profile assay; format: biochemical; details: 500 nM; relative to DMSO; read-out: Residual enzymatic activity
T1 construct: purchased Reaction Biology Corporation
From the text: (§1) Kinase activity data was expressed as the percent remaining kinase activity in test samples compared to vehicle (dimethyl sulfoxide) reactions based on the radioactivity of reaction products (see Table S2). Experiment was replicated twice.

BMX/ETK = target: T2, BMX/ETK (Homo sapiens, UniProt P51813); experiment: Kinase selectivity profile assay; format: biochemical
T2 construct: purchased Reaction Biology Corporation (assay service)
T2 sequence (P51813 whole entry): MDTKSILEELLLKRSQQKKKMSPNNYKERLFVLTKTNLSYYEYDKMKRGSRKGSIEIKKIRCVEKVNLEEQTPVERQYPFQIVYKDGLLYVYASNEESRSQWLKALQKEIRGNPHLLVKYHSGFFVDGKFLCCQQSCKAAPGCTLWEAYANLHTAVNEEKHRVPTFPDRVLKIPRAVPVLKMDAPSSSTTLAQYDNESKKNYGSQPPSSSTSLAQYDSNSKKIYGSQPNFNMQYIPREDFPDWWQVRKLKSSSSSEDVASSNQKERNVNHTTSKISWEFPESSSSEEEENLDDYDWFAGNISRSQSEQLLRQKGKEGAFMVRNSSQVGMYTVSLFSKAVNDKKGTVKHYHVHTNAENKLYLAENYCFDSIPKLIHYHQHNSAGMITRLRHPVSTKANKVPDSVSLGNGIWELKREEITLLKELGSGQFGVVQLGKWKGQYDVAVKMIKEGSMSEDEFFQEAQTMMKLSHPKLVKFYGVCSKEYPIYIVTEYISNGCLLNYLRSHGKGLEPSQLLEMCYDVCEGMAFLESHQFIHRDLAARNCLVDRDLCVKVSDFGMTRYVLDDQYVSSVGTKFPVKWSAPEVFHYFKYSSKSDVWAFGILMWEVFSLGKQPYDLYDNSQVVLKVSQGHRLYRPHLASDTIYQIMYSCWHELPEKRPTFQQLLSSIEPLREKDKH
From the text: as §1

CAMK1a = target: T3, CAMK1a (Homo sapiens, UniProt Q14012); experiment: Kinase selectivity profile assay; format: biochemical; details: 500 nM; relative to DMSO; read-out: Residual enzymatic activity
T3 construct: purchased Reaction Biology Corporation
From the text: as §1

CDK9/cyclin K = target: T4, CDK9/cyclin K (Homo sapiens, UniProt P50750); experiment: Kinase selectivity profile assay; format: biochemical; details: 500 nM; relative to DMSO; read-out: Residual enzymatic activity
T4 construct: purchased Reaction Biology Corporation
From the text: as §1

EPHA2 = target: T5, EPHA2 (Homo sapiens, UniProt P29317); experiment: Kinase selectivity profile assay; format: biochemical; details: 500 nM, relative to DMSO
T5 construct: purchased Reaction Biology Corporation
T5 sequence (P29317 24-976): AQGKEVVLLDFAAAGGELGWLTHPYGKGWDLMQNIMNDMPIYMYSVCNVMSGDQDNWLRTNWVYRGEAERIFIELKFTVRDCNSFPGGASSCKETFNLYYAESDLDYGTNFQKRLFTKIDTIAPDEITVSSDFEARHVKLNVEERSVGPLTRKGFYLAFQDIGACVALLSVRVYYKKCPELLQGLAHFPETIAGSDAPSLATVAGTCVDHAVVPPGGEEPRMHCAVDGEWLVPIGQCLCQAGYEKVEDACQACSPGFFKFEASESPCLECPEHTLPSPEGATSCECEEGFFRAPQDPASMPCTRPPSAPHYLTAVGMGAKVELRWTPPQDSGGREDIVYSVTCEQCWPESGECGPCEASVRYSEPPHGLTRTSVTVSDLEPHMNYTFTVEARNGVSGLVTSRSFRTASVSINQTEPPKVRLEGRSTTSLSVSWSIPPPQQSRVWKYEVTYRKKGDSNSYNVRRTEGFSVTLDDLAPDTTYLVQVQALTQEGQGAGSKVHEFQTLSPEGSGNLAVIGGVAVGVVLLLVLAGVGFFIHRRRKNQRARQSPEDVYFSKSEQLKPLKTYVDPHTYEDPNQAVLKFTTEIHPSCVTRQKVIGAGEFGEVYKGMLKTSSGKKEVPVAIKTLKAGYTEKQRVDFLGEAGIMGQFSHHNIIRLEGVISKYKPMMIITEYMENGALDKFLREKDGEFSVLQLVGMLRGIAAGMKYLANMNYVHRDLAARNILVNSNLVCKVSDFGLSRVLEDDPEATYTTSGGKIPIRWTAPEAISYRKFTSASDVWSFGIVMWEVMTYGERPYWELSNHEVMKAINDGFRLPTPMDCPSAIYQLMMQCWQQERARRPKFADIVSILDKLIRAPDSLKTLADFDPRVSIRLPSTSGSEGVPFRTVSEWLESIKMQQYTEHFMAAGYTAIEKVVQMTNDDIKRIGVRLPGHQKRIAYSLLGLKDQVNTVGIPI
From the text: as §1

IKKa/CHUK = target: T6, IKKa/CHUK (Homo sapiens, UniProt O15111); experiment: Kinase selectivity profile assay; format: biochemical; details: 500 nM; relative to DMSO; read-out: Residual enzymatic activity
T6 construct: purchased Reaction Biology Corporation
From the text: as §1

ITK = target: T7, ITK (Homo sapiens, UniProt Q08881); experiment: Kinase selectivity profile assay; format: biochemical; details: 500 nM; relative to DMSO; read-out: Residual enzymatic activity
T7 construct: purchased Reaction Biology Corporation
From the text: as §1

JAK2 = target: T8, JAK2 (Homo sapiens, UniProt O60674); experiment: Kinase selectivity profile assay; format: biochemical
T8 construct: purchased Reaction Biology Corporation (assay service)
T8 sequence (O60674 whole entry): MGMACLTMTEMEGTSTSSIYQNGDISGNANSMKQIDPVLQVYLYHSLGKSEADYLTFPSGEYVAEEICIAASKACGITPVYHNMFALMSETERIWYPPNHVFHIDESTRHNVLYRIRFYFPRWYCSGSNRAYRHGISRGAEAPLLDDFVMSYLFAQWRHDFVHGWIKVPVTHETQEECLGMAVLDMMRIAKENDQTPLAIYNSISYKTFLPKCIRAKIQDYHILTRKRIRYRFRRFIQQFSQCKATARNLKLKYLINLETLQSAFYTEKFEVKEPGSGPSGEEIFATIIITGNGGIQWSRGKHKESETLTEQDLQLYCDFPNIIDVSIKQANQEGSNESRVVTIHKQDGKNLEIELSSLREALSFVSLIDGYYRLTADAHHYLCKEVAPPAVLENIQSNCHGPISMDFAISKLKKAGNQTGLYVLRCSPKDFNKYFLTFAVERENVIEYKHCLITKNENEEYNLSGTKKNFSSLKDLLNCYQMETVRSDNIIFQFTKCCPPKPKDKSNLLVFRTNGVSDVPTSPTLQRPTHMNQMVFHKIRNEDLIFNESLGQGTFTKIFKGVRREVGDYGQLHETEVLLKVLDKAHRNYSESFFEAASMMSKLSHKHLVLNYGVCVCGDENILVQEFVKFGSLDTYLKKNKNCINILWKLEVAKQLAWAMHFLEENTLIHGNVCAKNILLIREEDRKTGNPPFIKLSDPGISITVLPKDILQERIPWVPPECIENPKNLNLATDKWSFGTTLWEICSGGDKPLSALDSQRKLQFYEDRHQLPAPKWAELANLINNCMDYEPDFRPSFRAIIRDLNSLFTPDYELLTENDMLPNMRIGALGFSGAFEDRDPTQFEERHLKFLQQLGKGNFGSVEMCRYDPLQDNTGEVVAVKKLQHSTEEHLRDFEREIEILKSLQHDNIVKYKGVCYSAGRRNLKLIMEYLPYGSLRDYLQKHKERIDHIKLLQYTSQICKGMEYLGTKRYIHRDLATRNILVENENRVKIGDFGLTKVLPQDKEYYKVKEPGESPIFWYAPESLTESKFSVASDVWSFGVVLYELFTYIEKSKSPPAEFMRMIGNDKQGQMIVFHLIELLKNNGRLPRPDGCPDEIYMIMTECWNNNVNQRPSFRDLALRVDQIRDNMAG
From the text: as §1

JNK2 = target: T9, JNK2 (Homo sapiens, UniProt P45984); experiment: Kinase selectivity profile assay; format: biochemical; details: 500 nM; relative to DMSO; read-out: Residual enzymatic activity
T9 construct: purchased Reaction Biology Corporation
From the text: as §1

MARK3 = target: T10, MARK3 (Homo sapiens, UniProt P27448); experiment: Kinase selectivity profile assay; format: biochemical; details: 500 nM; relative to DMSO; read-out: Residual enzymatic activity
T10 construct: purchased Reaction Biology Corporation
From the text: as §1

NEK2 = target: T11, NEK2 (Homo sapiens, UniProt P51955); experiment: Kinase selectivity profile assay; format: biochemical; details: 500 nM; relative to DMSO; read-out: Residual enzymatic activity
T11 construct: purchased Reaction Biology Corporation
From the text: as §1

PAK2 = target: T12, PAK2 (Homo sapiens, UniProt Q13177); experiment: Kinase selectivity profile assay; format: biochemical; details: 500 nM; relative to DMSO; read-out: Residual enzymatic activity
T12 construct: purchased Reaction Biology Corporation
From the text: as §1

PYK2 = target: T13, PYK2 (Homo sapiens, UniProt Q14289); experiment: Kinase selectivity profile assay; format: biochemical; details: 500 nM; relative to DMSO; read-out: Residual enzymatic activity
T13 construct: purchased Reaction Biology Corporation
From the text: as §1

ROS/ROS1 = target: T14, ROS/ROS1 (Homo sapiens, UniProt P08922); experiment: Kinase selectivity profile assay; format: biochemical
T14 construct: purchased Reaction Biology Corporation (Malvern, PA, USA)
T14 sequence (P08922 28-2347): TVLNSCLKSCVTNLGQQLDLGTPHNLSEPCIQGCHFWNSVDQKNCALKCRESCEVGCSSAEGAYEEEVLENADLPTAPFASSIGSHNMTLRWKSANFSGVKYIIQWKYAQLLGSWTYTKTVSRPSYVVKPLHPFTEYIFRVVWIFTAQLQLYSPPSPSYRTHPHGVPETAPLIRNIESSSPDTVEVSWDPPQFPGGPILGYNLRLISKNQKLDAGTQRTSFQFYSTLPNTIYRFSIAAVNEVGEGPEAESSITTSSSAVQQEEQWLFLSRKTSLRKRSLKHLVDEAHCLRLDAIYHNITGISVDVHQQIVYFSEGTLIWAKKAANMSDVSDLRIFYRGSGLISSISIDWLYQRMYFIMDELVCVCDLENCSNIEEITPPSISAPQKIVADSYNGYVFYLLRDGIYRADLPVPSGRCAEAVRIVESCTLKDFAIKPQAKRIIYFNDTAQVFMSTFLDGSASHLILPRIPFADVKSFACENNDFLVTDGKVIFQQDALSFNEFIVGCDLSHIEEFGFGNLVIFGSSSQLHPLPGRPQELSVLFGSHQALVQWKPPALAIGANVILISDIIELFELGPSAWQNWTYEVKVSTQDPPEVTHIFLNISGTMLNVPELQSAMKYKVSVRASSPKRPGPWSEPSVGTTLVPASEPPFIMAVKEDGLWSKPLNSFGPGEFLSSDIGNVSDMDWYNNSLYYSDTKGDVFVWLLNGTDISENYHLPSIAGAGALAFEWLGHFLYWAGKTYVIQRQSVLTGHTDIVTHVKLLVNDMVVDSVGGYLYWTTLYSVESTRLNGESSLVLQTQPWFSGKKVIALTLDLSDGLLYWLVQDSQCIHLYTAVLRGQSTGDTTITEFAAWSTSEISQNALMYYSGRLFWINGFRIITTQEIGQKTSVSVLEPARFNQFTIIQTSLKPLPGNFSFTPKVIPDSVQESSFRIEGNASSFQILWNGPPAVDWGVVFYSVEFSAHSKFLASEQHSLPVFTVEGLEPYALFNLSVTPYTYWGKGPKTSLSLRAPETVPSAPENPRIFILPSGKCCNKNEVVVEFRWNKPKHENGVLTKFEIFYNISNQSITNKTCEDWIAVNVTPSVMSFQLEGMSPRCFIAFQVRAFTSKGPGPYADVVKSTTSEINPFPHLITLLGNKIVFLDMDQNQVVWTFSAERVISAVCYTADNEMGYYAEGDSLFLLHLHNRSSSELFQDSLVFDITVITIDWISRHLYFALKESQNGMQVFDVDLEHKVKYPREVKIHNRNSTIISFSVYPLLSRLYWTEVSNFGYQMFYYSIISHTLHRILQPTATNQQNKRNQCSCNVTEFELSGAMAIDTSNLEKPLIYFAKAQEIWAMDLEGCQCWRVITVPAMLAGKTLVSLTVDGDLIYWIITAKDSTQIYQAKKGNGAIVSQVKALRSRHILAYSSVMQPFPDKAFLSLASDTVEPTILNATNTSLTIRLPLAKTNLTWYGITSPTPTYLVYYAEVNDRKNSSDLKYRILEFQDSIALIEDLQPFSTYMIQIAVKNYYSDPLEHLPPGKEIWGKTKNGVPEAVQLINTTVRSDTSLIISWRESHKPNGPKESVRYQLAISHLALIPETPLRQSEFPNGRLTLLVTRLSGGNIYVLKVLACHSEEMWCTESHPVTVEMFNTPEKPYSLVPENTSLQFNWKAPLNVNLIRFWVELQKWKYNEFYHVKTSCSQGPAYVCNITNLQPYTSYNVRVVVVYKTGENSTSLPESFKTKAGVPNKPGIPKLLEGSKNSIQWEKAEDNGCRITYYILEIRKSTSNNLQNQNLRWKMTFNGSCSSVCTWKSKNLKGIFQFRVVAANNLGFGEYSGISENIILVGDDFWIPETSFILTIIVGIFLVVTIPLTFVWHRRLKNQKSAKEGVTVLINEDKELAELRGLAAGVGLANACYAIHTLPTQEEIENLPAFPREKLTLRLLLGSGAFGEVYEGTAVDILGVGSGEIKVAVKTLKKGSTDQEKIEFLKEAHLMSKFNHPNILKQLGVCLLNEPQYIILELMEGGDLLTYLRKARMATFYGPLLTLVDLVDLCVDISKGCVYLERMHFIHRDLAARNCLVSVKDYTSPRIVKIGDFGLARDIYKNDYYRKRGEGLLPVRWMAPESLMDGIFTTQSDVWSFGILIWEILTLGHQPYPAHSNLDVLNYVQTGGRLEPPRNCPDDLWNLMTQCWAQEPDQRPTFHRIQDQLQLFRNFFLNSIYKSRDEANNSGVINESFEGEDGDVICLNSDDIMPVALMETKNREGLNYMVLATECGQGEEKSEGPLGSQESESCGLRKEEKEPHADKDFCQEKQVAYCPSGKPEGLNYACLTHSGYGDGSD
From the text: as §1

ZIPK/DAPK3 = target: T15, ZIPK/DAPK3 (Homo sapiens, UniProt O43293); experiment: Kinase selectivity profile assay; format: biochemical; details: 500 nM; relative to DMSO; read-out: Residual enzymatic activity
T15 construct: purchased Reaction Biology Corporation
From the text: as §1

[1] = Tissue distribution after single oral administration in rats; format: in vivo, rat; details: for Bone concentration / Joint concentration / Kidney concentration / Liver concentration / concentration at 2 h / concentration at 8 h / concentration at 24 h: 100 mg/kg PO, male Wistar rats, 100 mg/kg; for concentration at 2 h / concentration at 8 h / concentration at 24 h: po
Method: Experiments were performed at ChemPartner, Shanghai, China and approved by Institutional Ethics Committee (IEC) of ChemPartner. Male Wistar 10–12 weeks old rats with body weights of 185–220 g and male New Zealand rabbits with body weights of 2.0–2.3 kg were purchased from Shanghai SLAC Laboratory Animal Co., Ltd. MT-SYK-03 was administered to the three groups of rats (six rats per group) via oral gavage at 10 mL/kg concentration, and in rabbits 5 mL/kg concentration. Blood samples were kept on ice and centrifuged (2000 g, 4 ℃, 5 min) within 15 min post sampling.

[2] = 500 nM, relative to DMSO, read-out: Residual enzymatic activity
[3] = 10-dose mode, threefold serial dilution from 10 μM

SMILES: COc1cc(Nc2ncnc(Nc3cc4c(cn3)NC(=O)C(C)(C)O4)n2)cc(OC)c1OC [MT-SYK-03]
- remaining activity at 0.5 µM (Aurora A): 74.4%
- remaining activity at 0.5 µM (BMX/ETK; [2]): 18%
- IC50 (BMX/ETK; [3]): 199 nM
- remaining activity at 0.5 µM (CAMK1a): 100%
- remaining activity at 0.5 µM (CDK9/cyclin K): 95.7%
- Residual enzymatic activity (EPHA2): 56.3%
- remaining activity at 0.5 µM (EPHA2; read-out: Residual enzymatic activity): > 54%
- remaining activity at 0.5 µM (IKKa/CHUK): 100%
- remaining activity at 0.5 µM (ITK): 102%
- remaining activity at 0.5 µM (JAK2; [2]): 27%
- IC50 (JAK2; [3]): 67.2 nM
- remaining activity at 0.5 µM (JNK2): 92.6%
- remaining activity at 0.5 µM (MARK3): 97.1%
- remaining activity at 0.5 µM (NEK2): 86%
- remaining activity at 0.5 µM (PAK2): 94.1%
- remaining activity at 0.5 µM (PYK2): 63.4%
- remaining activity at 0.5 µM (ROS/ROS1; [2]): 25.9%
- IC50 (ROS/ROS1; [3]): 34.7 nM
- remaining activity at 0.5 µM (ZIPK/DAPK3): 98.4%
- Bone concentration ([1]; bone, 2 h, individual animals): 433 ng/mL and 576 ng/mL
- Bone concentration ([1]; bone, 8 h, individual animals): 1290 ng/mL and 681 ng/mL and 153 ng/mL
- Bone concentration ([1]; bone, 24 h, individual animals): 8.28 ng/mL and 19.9 ng/mL and 14.5 ng/mL
- Joint concentration ([1]; joint, 2 h, individual animals): 584 ng/mL and 631 ng/mL
- Joint concentration ([1]; joint, 8 h, individual animals): 1100 ng/mL and 673 ng/mL and 216 ng/mL
- Joint concentration ([1]; joint, 24 h, individual animals): 12.2 ng/mL and 20.4 ng/mL and 8.49 ng/mL
- Kidney concentration ([1]; kidney, 2 h, individual animals): 2880 ng/mL and 3160 ng/mL
- Kidney concentration ([1]; kidney, 8 h, individual animals): 1200 ng/mL and 375 ng/mL and 260 ng/mL
- Kidney concentration ([1]; kidney, 24 h, individual animals): 5.30 ng/mL and 72.0 ng/mL and 8.51 ng/mL
- Liver concentration ([1]; liver, 2 h, individual animals): 4700 ng/mL and 6610 ng/mL
- Liver concentration ([1]; liver, 8 h, individual animals): 1860 ng/mL and 635 ng/mL and 442 ng/mL
- Liver concentration ([1]; liver, 24 h, individual animals): 7.95 ng/mL and 115 ng/mL and 12.8 ng/mL
- Kp ([1]; male, Wistar, rat, bone and cartilage tissues, rats, single oral administration, read-out: Exposure in bone and cartilage tissues relative to plasma): 3
- concentration at 2 h ([1]; male, Wistar, rat, bone, bone, 2 h, individual animals, read-out: Bone concentration): 327 ng/mL
- concentration at 2 h ([1]; male, Wistar, rat, bone, bone, 2 h, mean, read-out: Bone concentration, Mean): 445 ng/mL
- concentration at 8 h ([1]; male, Wistar, rat, bone, bone, 8 h, mean, read-out: Bone concentration, Mean): 708 ng/mL
- concentration at 24 h ([1]; male, Wistar, rat, bone, bone, 24 h, mean, read-out: Bone concentration, Mean): 14.2 ng/mL
- concentration at 2 h ([1]; male, Wistar, rat, joint, joint, 2 h, individual animals, read-out: Joint concentration): 470 ng/mL
- concentration at 2 h ([1]; male, Wistar, rat, joint, joint, 2 h, mean, read-out: Joint concentration, Mean): 562 ng/mL
- concentration at 8 h ([1]; male, Wistar, rat, joint, joint, 8 h, mean, read-out: Joint concentration, Mean): 663 ng/mL
- concentration at 24 h ([1]; male, Wistar, rat, joint, joint, 24 h, mean, read-out: Joint concentration, Mean): 13.7 ng/mL
- concentration at 2 h ([1]; male, Wistar, rat, kidney, kidney, 2 h, individual animals, read-out: Kidney concentration): 2350 ng/mL
- concentration at 2 h ([1]; male, Wistar, rat, kidney, kidney, 2 h, mean, read-out: Kidney concentration, Mean): 2800 ng/mL
- concentration at 8 h ([1]; male, Wistar, rat, kidney, kidney, 8 h, mean, read-out: Kidney concentration, Mean): 612 ng/mL
- concentration at 24 h ([1]; male, Wistar, rat, kidney, kidney, 24 h, mean, read-out: Kidney concentration, Mean): 28.6 ng/mL
- concentration at 2 h ([1]; male, Wistar, rat, liver, liver, 2 h, individual animals, read-out: Liver concentration): 4450 ng/mL
- concentration at 2 h ([1]; male, Wistar, rat, liver, liver, 2 h, mean, read-out: Liver concentration, Mean): 5250 ng/mL
- concentration at 8 h ([1]; male, Wistar, rat, liver, liver, 8 h, mean, read-out: Liver concentration, Mean): 979 ng/mL
- concentration at 24 h ([1]; male, Wistar, rat, liver, liver, 24 h, mean, read-out: Liver concentration, Mean): 45.3 ng/mL
- concentration at 2 h ([1]; male, Wistar, rat, muscle, muscle, 2 h, individual animals, read-out: Muscle concentration): 456 ng/mL
- concentration at 2 h ([1]; male, Wistar, rat, muscle, muscle, 2 h, mean, read-out: Muscle concentration, Mean): 436 ng/mL
- concentration at 8 h ([1]; male, Wistar, rat, muscle, muscle, 8 h, individual animals, read-out: Muscle concentration): 160 ng/mL
- concentration at 8 h ([1]; male, Wistar, rat, muscle, muscle, 8 h, mean, read-out: Muscle concentration, Mean): 120 ng/mL
- concentration at 24 h ([1]; male, Wistar, rat, muscle, muscle, 24 h, individual animals, read-out: Muscle concentration): 4.68 ng/mL
- concentration at 24 h ([1]; male, Wistar, rat, muscle, muscle, 24 h, mean, read-out: Muscle concentration, Mean): 6.8 ng/mL
- concentration at 2 h ([1]; male, Wistar, rat, prostate, prostate, 2 h, individual animals, read-out: Prostate concentration): 1070 ng/mL
